The subject of one series is psoriasis. As for the experimental part:
This phase I Clinical and Pharmacokinetic study was designed to determine the safety of Kahalalide F administered as a weekly infusion over 1 hour in patients with solid tumours. This trial was addressed to any solid tumours and was designed as a classical escalation. The patient was a patient with a psoriasis history since more than 40 years.

The conditions of series [1]: cited from earlier work.
The next series deals with solid tumour cell lines. Conditions: preclinical studies, in vitro; cited from earlier work.

Molecules are shown by their SMILES.

With `C/C=C1\NC(=O)[C@H](Cc2ccccc2)NC(=O)[C@@H](C(C)C)NC(=O)[C@@H](C(C)CC)NC(=O)[C@H](NC(=O)[C@H](NC(=O)[C@H](CCCN)NC(=O)[C@H]2CCCN2C(=O)[C@H](NC(=O)[C@@H](NC(=O)C(NC(=O)[C@H](NC(=O)CCCC(C)C)C(C)C)[C@@H](C)O)C(C)C)C(C)C)C(C)CC)C(C)OC(=O)[C@H](C(C)C)NC1=O` (stereo partly shown) [kahalalide F], the “psoriasic symptoms after the first infusion” value in the series on psoriasis (one patient, severe psoriasis, 650 μg/m^2 weekly iv infusion over 1 hour, after first infusion) was “quick improvement of the psoriasic symptoms”. Besides, the “remission of the cutaneous plaques with the following infusions” value with psoriasis (same patient, 650 μg/m^2 weekly, total of 7 infusions) is “nearly complete remission of the cutaneous plaques”. Moreover, the “psoriasis status after end of treatment” value in the series with psoriasis (same patient, two months after the last dose) is given as “still in a nearly complete remission situation”. Further, the “maximum tolerated dose (MTD)” value in series [1] (female mice, single bolus iv injection) was 0.28 mg/kg. Further, the “acute toxicity on repeated administration” value in series [1] (mice, 280 μg/kg once daily times five) is listed as “without any apparent evidence of acute toxicity”. Also, the “toxicity of single doses just above the MTDiv” value in series [1] (mice, single iv doses just above MTD, signs of neurotoxicity followed by death) is “extremely toxic”. Also, the “activity against solid tumour cell lines” value in the series on solid tumour cell lines is listed as “significant activity”.

The values are drawn from patent publication US7323444B2, “Use of kahalalide compounds for the manufacture of a medicament for the treatment of psoriasis” (Pharma Mar, S.A.U., priority 2003, dated 2008).
